Reference: ChEMBL document CHEMBL1201862, “PubChem BioAssay data set” (2004)
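1) Cells in 96-well plates. 2) Compound, 48 h, 5 concentrations. 3) Linear interpolation between surrounding doses. 4) Unreached endpoint = highest concentration. GI50 marks 50% less growth.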 Calls of active or inactive are those of the source. Rule as the data show it: active = GI50 up to about 1.1 µM and inactive = higher.

Key:
Assay in all cases: NCI-60 cell line screen, 48 h
HOP-62 = test system: HOP-62
HL-60 = test system: HL-60
MDA-MB-231 = test system: MDA-MB-231
SNB-19 = test system: SNB-19
KM12 = test system: KM12
NCI-H23 = test system: NCI-H23
SK-OV-3 = test system: SK-OV-3
Malme-3M = test system: Malme-3M
NCI-H522 = test system: NCI-H522
UO-31 = test system: UO-31
SK-MEL-5 = test system: SK-MEL-5
U-251 = test system: U-251
BT-549 = test system: BT-549
Hs-578T = test system: Hs-578T
MCF7 = test system: MCF7
HT-29 = test system: HT-29
TK-10 = test system: TK-10
786-0 = test system: 786-0
MOLT-4 = test system: MOLT-4
SNB-75 = test system: SNB-75

| Structure (SMILES) | GI50 (HOP-62) | GI50 (HL-60) | GI50 (MDA-MB-231) | GI50 (SNB-19) | GI50 (KM12) | GI50 (NCI-H23) | GI50 (SK-OV-3) | GI50 (Malme-3M) | GI50 (NCI-H522) | GI50 (UO-31) | GI50 (SK-MEL-5) | GI50 (U-251) | GI50 (BT-549) | GI50 (Hs-578T) | GI50 (MCF7) | GI50 (HT-29) | GI50 (TK-10) | GI50 (786-0) | GI50 (MOLT-4) | GI50 (SNB-75) |
| --- | --- | --- | --- | --- | --- | --- | --- | --- | --- | --- | --- | --- | --- | --- | --- | --- | --- | --- | --- | --- |
| CCCCCCN(CCCCCC)CCC(=O)c1ccc2cc(Br)c3ccccc3c2c1 | 40.4 µM (inactive) | 10.8 µM (inactive) | 26.7 µM (inactive) | 44.3 µM (inactive) | 11.5 µM (inactive) | 81.8 µM (inactive) | 39.1 µM (inactive) | 89.1 µM (inactive) | 25.5 µM (inactive) | 26.7 µM (inactive) | 26.1 µM (inactive) | 36.2 µM (inactive) | 20.3 µM (inactive) | 33.3 µM (inactive) | 20.2 µM (inactive) | 66.1 µM (inactive) | 26.4 µM (inactive) | 24.9 µM (inactive) | – | – |
| COC(=O)CCc1ccc2c(c1)CC1(C2)Cc2ccc(CCC(=O)OC)cc2C1 | 62.7 µM (inactive) | 17.1 µM (inactive) | 89.9 µM (inactive) | – | > 100 µM (inactive) | 44.7 µM (inactive) | > 100 µM (inactive) | 63.1 µM (inactive) | 34.5 µM (inactive) | > 100 µM (inactive) | 24 µM (inactive) | 40.1 µM (inactive) | – | > 100 µM (inactive) | 48.6 µM (inactive) | 62.7 µM (inactive) | > 100 µM (inactive) | > 100 µM (inactive) | 29.6 µM (inactive) | < 0.01 µM (active) |
| CC(C)=NN/C(=N\c1ccc(Cl)cc1)NS(=O)(=O)c1ccc(Oc2cccc(Cl)c2C#N)cc1 | > 100 µM (inactive) | > 100 µM (inactive) | > 100 µM (inactive) | > 100 µM (inactive) | > 100 µM (inactive) | > 100 µM (inactive) | – | > 100 µM (inactive) | > 100 µM (inactive) | > 100 µM (inactive) | > 100 µM (inactive) | > 100 µM (inactive) | > 100 µM (inactive) | > 100 µM (inactive) | > 100 µM (inactive) | > 100 µM (inactive) | > 100 µM (inactive) | > 100 µM (inactive) | > 100 µM (inactive) | – |
| COC(=O)C1=CC(=O)OC1(OO)c1ccccc1 (stereo not given) | – | 3.18 µM (inactive) | > 100 µM (inactive) | > 100 µM (inactive) | > 100 µM (inactive) | > 100 µM (inactive) | > 100 µM (inactive) | 28.3 µM (inactive) | 30.3 µM (inactive) | > 100 µM (inactive) | > 100 µM (inactive) | > 100 µM (inactive) | > 100 µM (inactive) | – | > 100 µM (inactive) | 56.4 µM (inactive) | > 100 µM (inactive) | 35.6 µM (inactive) | 62.2 µM (inactive) | 92.3 µM (inactive) |
| CN(NC1=NCCO1)c1ccc2ccccc2c1 | 80.7 µM (inactive) | 26.9 µM (inactive) | 26.3 µM (inactive) | 54.7 µM (inactive) | 63.1 µM (inactive) | 32.1 µM (inactive) | 39.1 µM (inactive) | 36.2 µM (inactive) | 29.9 µM (inactive) | 69.5 µM (inactive) | 29.2 µM (inactive) | 59.7 µM (inactive) | – | 35.2 µM (inactive) | 48.6 µM (inactive) | 41.1 µM (inactive) | > 100 µM (inactive) | 54.6 µM (inactive) | 42.2 µM (inactive) | 17.5 µM (inactive) |
| Cc1cccc(N2C(=O)C3c4[nH]c5ccccc5c4C4CCC(C(C)(C)C)CC4C3C2=O)c1 (stereo not given) | 3.54 µM (inactive) | 46.3 µM (inactive) | 9.53 µM (inactive) | 13.2 µM (inactive) | 11.9 µM (inactive) | 16 µM (inactive) | – | 13 µM (inactive) | 11.1 µM (inactive) | 15.3 µM (inactive) | 15.1 µM (inactive) | 17.3 µM (inactive) | 19 µM (inactive) | 9.98 µM (inactive) | 12 µM (inactive) | 13.5 µM (inactive) | 14.2 µM (inactive) | 3.63 µM (inactive) | 8.83 µM (inactive) | – |
| CN(CC(=O)O)c1ncc2c(n1)-c1ccccc1CC2 | > 100 µM (inactive) | > 100 µM (inactive) | > 100 µM (inactive) | > 100 µM (inactive) | > 100 µM (inactive) | > 100 µM (inactive) | > 100 µM (inactive) | > 100 µM (inactive) | > 100 µM (inactive) | > 100 µM (inactive) | > 100 µM (inactive) | > 100 µM (inactive) | – | > 100 µM (inactive) | > 100 µM (inactive) | > 100 µM (inactive) | > 100 µM (inactive) | > 100 µM (inactive) | > 100 µM (inactive) | 74.8 µM (inactive) |
| COc1ccc(C2=Nn3c(nnc(Cc4ccc(Cl)cc4)c3=O)SC2)cc1 | 62.1 µM (inactive) | 32.8 µM (inactive) | 60.3 µM (inactive) | 53.2 µM (inactive) | 35.8 µM (inactive) | 35.4 µM (inactive) | 55.3 µM (inactive) | > 100 µM (inactive) | 42.4 µM (inactive) | 52.1 µM (inactive) | 75.3 µM (inactive) | 40.3 µM (inactive) | 41.8 µM (inactive) | 63.5 µM (inactive) | 27.9 µM (inactive) | 30.4 µM (inactive) | > 100 µM (inactive) | 45 µM (inactive) | 26.7 µM (inactive) | – |
| COc1ccc(-c2nc(N)c(C#N)c3c2CCS(=O)(=O)c2ccc(C)cc2-3)cc1OC | 33.2 µM (inactive) | – | 28.6 µM (inactive) | 27.5 µM (inactive) | 19.4 µM (inactive) | 31.5 µM (inactive) | – | 26.5 µM (inactive) | 8.87 µM (inactive) | 30.8 µM (inactive) | 20.7 µM (inactive) | 40.6 µM (inactive) | 21.8 µM (inactive) | 24.6 µM (inactive) | – | 30.1 µM (inactive) | 56.1 µM (inactive) | 29 µM (inactive) | – | 23.7 µM (inactive) |
| CCN(CC)C(=S)SS(=O)(=O)c1ccc(Cl)cc1 | 22.7 µM (inactive) | – | 34.9 µM (inactive) | 38.3 µM (inactive) | 11.7 µM (inactive) | 38.5 µM (inactive) | 64.3 µM (inactive) | 11.7 µM (inactive) | 0.0319 µM (active) | 17.7 µM (inactive) | 9.04 µM (inactive) | 15.1 µM (inactive) | 34.4 µM (inactive) | 43.5 µM (inactive) | – | 17.8 µM (inactive) | 67.8 µM (inactive) | 29.9 µM (inactive) | – | – |
| COc1cc(C(=O)NC(CCN)(c2ccccc2)c2ccccc2)cc(OC)c1OC | > 31.6 µM (inactive) | 12.2 µM (inactive) | 16.9 µM (inactive) | > 58.5 µM (inactive) | 29.2 µM (inactive) | 26.3 µM (inactive) | > 31.6 µM (inactive) | 13.5 µM (inactive) | 16.6 µM (inactive) | 20.9 µM (inactive) | 13 µM (inactive) | 53.2 µM (inactive) | – | > 56.2 µM (inactive) | > 31.6 µM (inactive) | 16.8 µM (inactive) | 28.8 µM (inactive) | 22.9 µM (inactive) | 10.8 µM (inactive) | 17 µM (inactive) |
| COC(=O)c1ccccc1/C=C1\Cc2c(ccc3c2CCC3)C1=O | 80.5 µM (inactive) | > 100 µM (inactive) | – | > 100 µM (inactive) | > 100 µM (inactive) | > 100 µM (inactive) | – | > 100 µM (inactive) | > 100 µM (inactive) | > 100 µM (inactive) | > 100 µM (inactive) | 68.4 µM (inactive) | > 100 µM (inactive) | > 100 µM (inactive) | > 100 µM (inactive) | > 100 µM (inactive) | > 100 µM (inactive) | 70 µM (inactive) | > 100 µM (inactive) | 39.1 µM (inactive) |
| CCOC(=O)c1cn(-c2ccc(Cl)cc2)c(=O)n2c1nc1ccccc12 | > 100 µM (inactive) | – | > 100 µM (inactive) | > 100 µM (inactive) | > 100 µM (inactive) | > 100 µM (inactive) | – | – | – | > 100 µM (inactive) | > 100 µM (inactive) | > 100 µM (inactive) | > 100 µM (inactive) | – | > 100 µM (inactive) | 88.3 µM (inactive) | – | > 100 µM (inactive) | > 100 µM (inactive) | > 100 µM (inactive) |
| Cc1ccc(O)c(-c2cc(-c3cccc(Cl)c3)c(C#N)c(N)n2)c1 | 20.6 µM (inactive) | 36.1 µM (inactive) | 20.7 µM (inactive) | – | 19.6 µM (inactive) | 25.1 µM (inactive) | 21.4 µM (inactive) | 17.5 µM (inactive) | 12.5 µM (inactive) | 18 µM (inactive) | 14.4 µM (inactive) | 15.6 µM (inactive) | 36.3 µM (inactive) | 22.7 µM (inactive) | 13.5 µM (inactive) | 25.8 µM (inactive) | 18.1 µM (inactive) | 20.4 µM (inactive) | 12.8 µM (inactive) | – |
| CN(C)/C=C/c1c2c(nc3ccccc13)C(=O)c1ccccc1C2=O | 0.266 µM (active) | 0.366 µM (active) | 1.55 µM (inactive) | 1.83 µM (inactive) | 1.34 µM (inactive) | 0.194 µM (active) | 3.91 µM (inactive) | 0.71 µM (active) | 1.16 µM (inactive) | 1.82 µM (inactive) | 0.175 µM (active) | 0.991 µM (active) | 1.77 µM (inactive) | 1.04 µM (active) | 0.7 µM (active) | 1.54 µM (inactive) | 2.13 µM (inactive) | 1.92 µM (inactive) | 1.03 µM (active) | – |
| COc1cc(CC2CCc3nc(N)nc(N)c3C2)cc(OC)c1OC (stereo not given) | 2.05 µM (inactive) | 0.1 µM (active) | – | > 22.9 µM (inactive) | 1.18 µM (inactive) | 0.698 µM (active) | 27.6 µM (inactive) | 0.851 µM (active) | 0.505 µM (active) | – | 0.0834 µM (active) | > 35.2 µM (inactive) | 9.55 µM (inactive) | > 60.5 µM (inactive) | 0.527 µM (active) | > 34.8 µM (inactive) | > 45.7 µM (inactive) | 0.0536 µM (active) | 1.01 µM (active) | 1.55 µM (inactive) |
